Measurements taken from patent publication US9272054B2, “Agents for the molecular imaging of serine-protease in human pathologies” (Institut National de la Sante et de la Recherche Medicale …, priority 2010, dated 2016).
Square brackets hold non-standard residues; d marks the D form. Peptide text beside a SMILES is read from it. * marks the point of attachment. DOTA = O=C(O)CN1CCN(CC(=O)O)CCN(CC(=O)*)CCN(CC(=O)O)CC1; DTPA = O=C(O)CN(CCN(CC(=O)O)CC(=O)O)CCN(CC(=O)O)CC(=O)*; CH2Cl = ClC*

Key:
[1] = tested on: localized lesion / thrombus; settings: rat
From the text: we have used several experimental models of endovascular thrombus formation in rats, which have been already developed for molecular molecular imaging of platelet activation and fibrin formation, including aneurysm of the abdominal aorta {Sarda-Mantel, 2006}, endocarditic vegetations {Rouzet, 2008}. Aneurysm of the aorta was induced by matrix decellularized xenograft in rats {Allaire, 1996}, and endocarditis by left or right ventricle catheterization followed by provoked bacteraemia {Rouzet, 2008} as previously described. These thrombus models were completed by a model of stroke, provoked by cerebral autologous thrombus emboli in rats (reference). […]
Relevant tissues (heart, abdominal aorta, or brain according to the model) were carefully dissected, frozen and cut into transverse sections of 20 μm thickness, which were exposed in a digital radioimager (Instant Imager, Packard, Meriden, USA) for 12 hours. The activity normalized to the region of interest area (mean counts/min/mm^2 corrected for background activity) was determined on autoradiograms. Quantification was performed by calculating the ratio between the activity of the relevant tissue and the activity of a region of interest drawn on either normal myocardium remote from the vegetation in the endocarditis model, supra-renal aorta sample in the AAA model, or the contralateral brain hemisphere in the stroke model. […]

[2] = biological target: T1, plasmin from human plasma (Homo sapiens, UniProt P00747); test: Determination of plasmin activity with fluorescent substrate Suc-Ala-Phe-Lys-AMC; assay type: biochemical; settings: for % of plasmin activity (mean): 10 nM plasmin, 15 min pre-incubation at room temperature, n=4
T1 construct: plasmin from human plasma (calbiochem); purchased calbiochem; host or cells: human plasma
Protocol: Plasmin with or without inhibitors was incubated at room temperature for 15 min. The fluorescent substrate (40 μM) was added just before reading (λ excitation 390 nm, λ emission 460 nm)
10 nM of plasmin from human plasma (calbiochem) was diluted in Tris-HCl buffer pH 7.4 50 mM, NaCl 100 mM and Tween-20 0.01%. The samples were then incubated or not with the different inhibitors (see below) for 15 minutes at room temperature. Then, the fluorescent substrate (Suc-Ala-Phe-Lys-AMC, […]) was added just before reading (λ excitation 390 nm, λ emission 460 nm) on the Fluoroskan Ascent plate reader (Thermo Fisher). The fluorescence intensity was evaluated every 10 minutes for 2 hours at 37° C.—The integration time for each measure was 20 ms.
Each inhibitor was tested in a range of concentrations from 5 nM up to 1000 nM. All the inhibitors were tested in duplicates for each concentration and 4 independent experiments were performed.
Results are presented as % of active plasmin. The differences between the concentrations of each inhibitor were evaluated by paired t-test using StatView software. Statistical significance was accepted when p<0.05.

plasmin = plasmin (Homo sapiens, UniProt P00747); settings: competitive inhibitor of plasmin; Chi, 1989; cited from earlier work
plasmin, sequence (P00747 581-810 limits assumed, species assumed): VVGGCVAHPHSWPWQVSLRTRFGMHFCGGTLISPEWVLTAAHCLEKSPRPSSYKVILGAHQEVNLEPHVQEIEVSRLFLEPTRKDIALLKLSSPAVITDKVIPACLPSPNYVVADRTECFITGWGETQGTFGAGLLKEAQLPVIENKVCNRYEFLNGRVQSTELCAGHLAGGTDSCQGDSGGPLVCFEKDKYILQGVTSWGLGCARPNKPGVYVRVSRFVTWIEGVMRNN
plasmin, sequence (P00747 97-580 partner limits assumed, species assumed): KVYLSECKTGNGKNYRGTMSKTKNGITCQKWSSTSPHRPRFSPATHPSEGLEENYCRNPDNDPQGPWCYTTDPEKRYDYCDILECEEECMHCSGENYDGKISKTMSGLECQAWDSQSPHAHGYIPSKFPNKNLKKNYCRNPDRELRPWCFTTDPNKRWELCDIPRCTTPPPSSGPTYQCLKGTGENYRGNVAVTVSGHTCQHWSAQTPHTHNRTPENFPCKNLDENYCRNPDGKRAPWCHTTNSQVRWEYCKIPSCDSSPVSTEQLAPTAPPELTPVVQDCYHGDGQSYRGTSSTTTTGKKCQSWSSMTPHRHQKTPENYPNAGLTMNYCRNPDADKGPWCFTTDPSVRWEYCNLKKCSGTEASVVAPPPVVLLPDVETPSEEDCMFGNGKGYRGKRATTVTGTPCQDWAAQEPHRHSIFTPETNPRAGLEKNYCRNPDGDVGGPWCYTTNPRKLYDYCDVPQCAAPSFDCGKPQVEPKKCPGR

T1 sequence (P00747 581-810 limits assumed): as the sequence (P00747 581-810 limits assumed, species assumed) above
T1 sequence (P00747 97-580 partner limits assumed): as the sequence (P00747 97-580 partner limits assumed, species assumed) above

CC(C)[C@@H](NC(=O)CNC(=O)CN(CCN(CCN(CC(=O)O)CC(=O)O)CC(=O)O)CC(=O)O)C(=O)N[C@@H](Cc1ccccc1)C(=O)N[C@@H](CCCCN)C(=O)CCl [99mTc-DTPA-G-dVFKcmk, metal not drawn] ({DTPA}-G[dV]FK-CH2Cl)
in vivo uptake by bone marrow [1]: high

CC(C)[C@@H](NC(=O)CNC(=O)CN1CCN(CC(=O)O)CCN(CC(=O)O)CCN(CC(=O)O)CC1)C(=O)N[C@@H](Cc1ccccc1)C(=O)N[C@@H](CCCCN)C(=O)CCl [PL 701, DOTA-G-dV-F—K-cmk] ({DOTA}-G[dV]FK-CH2Cl)
% of plasmin activity (mean) ([2]; inhibitor 5 nM): 83.0% | % of plasmin activity (mean) ([2]; inhibitor 10 nM): 79.1% | % of plasmin activity (mean) ([2]; inhibitor 50 nM): 68.7% | % of plasmin activity (mean) ([2]; inhibitor 100 nM): 54.6% | % of plasmin activity (mean) ([2]; inhibitor 500 nM): 34.1% | % of plasmin activity (mean) ([2]; inhibitor 1000 nM): 12.8%

CC(C)[C@@H](NC(=O)CNC(=O)CN1CCN(CC(=O)O)CCN(CC(=O)O)CCN(CC(=O)O)CC1)C(=O)N[C@@H](Cc1ccccc1)C(=O)N[C@@H](C)C(=O)CCl [PL 703, DOTA-G-dV-F-A-cmk] ({DOTA}-G[dV]FA-CH2Cl)
% of plasmin activity (mean) ([2]; inhibitor 5 nM): 94.9% | % of plasmin activity (mean) ([2]; inhibitor 10 nM): 93.6% | % of plasmin activity (mean) ([2]; inhibitor 50 nM): 86.1% | % of plasmin activity (mean) ([2]; inhibitor 100 nM): 84.1% | % of plasmin activity (mean) ([2]; inhibitor 500 nM): 58.4% | % of plasmin activity (mean) ([2]; inhibitor 1000 nM): 48.4%

CC(C)[C@@H](NC(=O)CNC(=O)CN(CCN(CCN(CC(=O)O)CC(=O)O)CC(=O)O)CC(=O)O)C(=O)N[C@@H](Cc1ccccc1)C(=O)N[C@@H](CCCCN)C(=O)CCl [PL 704, DTPA-G-dV-F—K-cmk] ({DTPA}-G[dV]FK-CH2Cl)
% of plasmin activity (mean) ([2]; inhibitor 5 nM): 56.3% | % of plasmin activity (mean) ([2]; inhibitor 10 nM): 46.2% | % of plasmin activity (mean) ([2]; inhibitor 50 nM): 27.4% | % of plasmin activity (mean) ([2]; inhibitor 100 nM): 16.6% | % of plasmin activity (mean) ([2]; inhibitor 500 nM): 4.0% | % of plasmin activity (mean) ([2]; inhibitor 1000 nM): 1.1%

CC(=O)N[C@@H](CC(C)C)C(=O)N[C@@H](CC(C)C)C(=O)N[C@H](C=O)CCCNC(=N)N [leupeptin, Ac-Leu-Leu-Arg-H]
Ki (plasmin): ~100 nM

D-Val-Phe-Lys-COCH2Cl [VFK, reference compound]
% of plasmin activity (mean) ([2]; inhibitor 5 nM): 77.1% | % of plasmin activity (mean) ([2]; inhibitor 10 nM): 68.3% | % of plasmin activity (mean) ([2]; inhibitor 50 nM): 39.1% | % of plasmin activity (mean) ([2]; inhibitor 100 nM): 11.9% | % of plasmin activity (mean) ([2]; inhibitor 500 nM): 8.0% | % of plasmin activity (mean) ([2]; inhibitor 1000 nM): 7.8%

G-dV-F-A-cmk [PL 702]
% of plasmin activity (mean) ([2]; inhibitor 5 nM): 102.3% | % of plasmin activity (mean) ([2]; inhibitor 10 nM): 123.5% | % of plasmin activity (mean) ([2]; inhibitor 50 nM): 122.9% | % of plasmin activity (mean) ([2]; inhibitor 100 nM): 113.3% | % of plasmin activity (mean) ([2]; inhibitor 500 nM): 112.1% | % of plasmin activity (mean) ([2]; inhibitor 1000 nM): 107.3% | inhibitory effect on plasmin activity (in words) ([2]; range 5 nM to 1000 nM): totally abolished

G-dV-F—K-cmk [PL 700]
% of plasmin activity (mean) ([2]; inhibitor 5 nM): 89.8% | % of plasmin activity (mean) ([2]; inhibitor 10 nM): 95.6% | % of plasmin activity (mean) ([2]; inhibitor 50 nM): 65.7% | % of plasmin activity (mean) ([2]; inhibitor 100 nM): 43.1% | % of plasmin activity (mean) ([2]; inhibitor 500 nM): 15.8% | % of plasmin activity (mean) ([2]; inhibitor 1000 nM): 5.8%
